Assay [1] concerns HeLa. Nature of the assay: Antiproliferative activity against human HeLa cells after 48 hrs by MTT assay. In kind it is functional. (In general: Tetrazolium assays rely on reduction of a dye to a coloured formazan, in cell work by metabolically active cells.)
A short description of assay [2]: Antiproliferative activity against human Bel7402 cells after 48 hrs by MTT assay. In kind it is functional. Conditions: Bel-7402, 48 h.
A further assay has as its system MDA-MB-231. Nature of the assay: Antiproliferative activity against human MDA-MB-231 cells after 48 hrs by MTT assay. The format is functional. Conditions: MDA-MB-231, 48 h.
The nature of assay [3]: Antiproliferative activity against human PC3 cells after 48 hrs by MTT assay. In kind it is functional. Conditions: PC-3, 48 h.
Another assay concerns A549. Nature of the assay: Antiproliferative activity against human A549 cells after 48 hrs by MTT assay. Conditions: A549, 48 h. The format is functional.
The next assay concerns the target Tubulin. Nature of the assay: Inhibition of tubulin polymerization (unknown origin) by fluorescence analysis. In kind it is protein-complex assay, Homo sapiens.
In assay [4] the test system is HeLa. Kind of assay: Induction of microtubule disruption in human HeLa cells assessed as irregular cytoplasm and chromosomes at 0.5 microM after 48 hrs by hoechst-33342-staining based confocal microscopy analysis. The format is cell-based.
For assay [5], the system named is HeLa. Kind of assay: Induction of microtubule disruption in human HeLa cells assessed as microtubule heavily shrunk around centre of cells at 0.5 microM after 48 hrs by hoechst-33342-staining based confocal microscopy analysis. In kind it is cell-based.
In assay [6] the test system is HeLa. Kind of assay: Induction of apoptosis in human HeLa cells assessed as viable cells at 0.5 uM after 48 hrs by annexin-v-PI staining based flow cytometry (reference value: 98.4%). In kind it is functional. Conditions: read-out: Activity. Background: A flow cytometer gives signals particle by particle.
In assay [7] the test system is HeLa. Nature of the assay: Induction of apoptosis in human HeLa cells assessed as early apoptotic cells at 0.1 uM after 48 hrs by annexin-v-PI staining based flow cytometry (reference value: 1.44%). In kind it is functional.
Assay [8] concerns HeLa. Kind of assay: Induction of apoptosis in human HeLa cells assessed as late apoptotic cells at 0.05 uM after 48 hrs by annexin-v-PI staining based flow cytometry (reference value: 0.08%). In kind it is functional.
The subject of assay [9] is HeLa. Nature of the assay: Cell cycle arrest in human HeLa cells assessed as accumulation at G2/M phase after 48 hrs by flow cytometry. The format is functional, cell-based.
The test system of assay [10] is HeLa. Kind of assay: Induction of apoptosis in human HeLa cells assessed as late necrotic cells at 0.05 uM after 48 hrs by annexin-v-PI staining based flow cytometry (reference value: 0.09%). In kind it is functional.
In assay [11] the test system is HeLa. Nature of the assay: Induction of apoptosis in human HeLa cells assessed as viable cells at 0.1 uM after 48 hrs by annexin-v-PI staining based flow cytometry (reference value: 98.4%). In kind it is functional. Particulars: read-out: Activity.
The test system of assay [12] is HeLa. Nature of the assay: Induction of apoptosis in human HeLa cells after 48 hrs by annexin-v-PI staining based flow cytometry. The format is functional, cell-based.
Assay [13] deals with HeLa. Kind of assay: Induction of apoptosis in human HeLa cells assessed as viable cells at 0.05 uM after 48 hrs by annexin-v-PI staining based flow cytometry (reference value: 98.4%). In kind it is functional. Particulars: read-out: Activity.
Assay [14] concerns HeLa. Nature of the assay: Cell cycle arrest in human HeLa cells assessed as accumulation at G2/M phase at 0.1 microM after 48 hrs by flow cytometry. The format is functional.
In assay [15] the test system is HeLa. Kind of assay: Induction of apoptosis in human HeLa cells assessed as late apoptotic cells at 0.5 uM after 48 hrs by annexin-v-PI staining based flow cytometry (reference value: 0.08%). In kind it is functional.
Assay [16] has as its system HeLa. Kind of assay: Cell cycle arrest in human HeLa cells assessed as accumulation at G2/M phase at 0.5 microM after 48 hrs by flow cytometry. The format is functional.
Assay [17] relates to HeLa. Kind of assay: Induction of apoptosis in human HeLa cells assessed as early apoptotic cells at 0.05 uM after 48 hrs by annexin-v-PI staining based flow cytometry (reference value: 1.44%). In kind it is functional.
Assay [18] concerns HeLa. Nature of the assay: Induction of apoptosis in human HeLa cells assessed as late necrotic cells at 0.1 uM after 48 hrs by annexin-v-PI staining based flow cytometry (reference value: 0.09%). The format is functional.
Assay [19] relates to HeLa. Nature of the assay: Induction of apoptosis in human HeLa cells assessed as early apoptotic cells at 0.5 uM after 48 hrs by annexin-v-PI staining based flow cytometry (reference value: 1.44%). The format is functional.
Assay [20] deals with HeLa. Nature of the assay: Induction of apoptosis in human HeLa cells assessed as late apoptotic cells at 0.1 uM after 48 hrs by annexin-v-PI staining based flow cytometry (reference value: 0.08%). The format is functional.
In assay [21] the test system is HeLa. Nature of the assay: Induction of apoptosis in human HeLa cells assessed as late necrotic cells at 0.5 uM after 48 hrs by annexin-v-PI staining based flow cytometry (reference value: 0.09%). The format is functional.
Assay [22] deals with HeLa. Kind of assay: Induction of microtubule disruption in human HeLa cells assessed as destabilized microtubule network at 0.05,0.1, 0.5 microM after 48 hrs by hoechst-33342-staining based confocal microscopy analysis. The format is cell-based.
For assay [23], the system named is HeLa. Kind of assay: Cell cycle arrest in human HeLa cells assessed as accumulation at G2/M phase at 0.05 microM after 48 hrs by flow cytometry. The format is functional.

Activity calls are given as the source filed them. The rule behind the calls is not given here. Some results are limits rather than exact numbers.

For `COc1cc2c(cc1O)C(=O)/C(=C/c1ccc(OC)c(OC)c1OC)C2`, the GI50 – broadly, the concentration that inhibits growth by half – with HeLa [1] was 1.59 µM; in assay [2] it was 9.65 µM; in the assay with MDA-MB-231, 2.41 µM; in [3], 3.14 µM; in the assay on A549 it was 3.42 µM.

With `COc1ccc(/C=C2\Cc3c(cc(OC)c(OC)c3OC)C2=O)cc1`, 9.62 µM corresponded to half-maximal inhibition against Tubulin (IC50). Besides, the concentration for 50% growth inhibition (GI50) in the assay on HeLa [1] came out at 0.485 µM; in assay [2], 0.56 µM; in the assay with MDA-MB-231 it was 0.429 µM; in assay [3], 0.75 µM; with A549 it was 0.273 µM.

With `COc1ccc(/C=C2\CCc3c(cc(OC)c(OC)c3OC)C2=O)cc1`, the 50% growth inhibitory concentration (GI50) in the assay with HeLa [1] amounted to 12.4 µM; in [2] it was 25.4 µM; in the assay on MDA-MB-231, 38.7 µM; in assay [3] it was 19.6 µM; with A549, 18.9 µM.

In the case of `COc1ccc(/C=C2\Cc3c(cc(OC)c(OC)c3OC)C2=O)cc1Br`, the IC50 (as a rule, the midpoint of a concentration-inhibition curve) against Tubulin amounted to 9.05 µM. Besides, the GI50 with HeLa [1] turned out to be 0.356 µM; in [2] it was 0.563 µM; in the assay with MDA-MB-231, 0.678 µM; in assay [3], 0.389 µM; in the assay with A549 it was 0.41 µM.

For the compound `COc1ccc(/C=C\c2cc(OC)c(OC)c(OC)c2)cc1O` [COMBRETASTATIN A4], the GI50 in the assay with HeLa [1] was found to be 0.0028 µM; in assay [2], 0.012 µM; in the assay on MDA-MB-231, 0.021 µM; in [3] it was 0.014 µM; with A549 it was 0.018 µM.

As to `COc1ccc(/C=C2\Cc3c(cc(OC)c(OC)c3OC)C2=O)cc1N`, the IC50 against Tubulin came out at 8.64 µM. Also, the GI50 in the assay on HeLa [1] was 0.169 µM; in assay [2], 0.45 µM; with MDA-MB-231, 0.485 µM; in assay [3], 0.456 µM; with A549, 0.212 µM.

In the case of `COc1ccc(/C=C2\Cc3cc(OC)c(OC)c(OC)c3C2=O)cc1N`, the GI50 (with HeLa [1]; in [2]; with MDA-MB-231; in assay [3]; with A549) was greater than 10 µM each time.

As to `COc1cc(/C=C2\Cc3cc(OC)c(OC)c(OC)c3C2=O)cc(OC)c1OC`, the GI50 (in the assay on HeLa [1]; in assay [2]; with MDA-MB-231; in [3]; with A549) was greater than 10 µM throughout.

For `COc1ccc(/C=C2\Cc3c(cc(OC)c(OC)c3OC)C2=O)cc1[N+](=O)[O-]`, the GI50 was 0.79 µM with HeLa [1]; 0.95 µM in assay [2]; 3.49 µM in the assay with MDA-MB-231; 1.56 µM in assay [3]; 0.77 µM in the assay on A549.

For `COc1ccc(/C=C2\CCc3c(cc(OC)c(OC)c3OC)C2=O)cc1F`, the GI50 amounted to 10.2 µM with HeLa [1]; 19.3 µM in assay [2]; 29.4 µM with MDA-MB-231; 27.6 µM in [3]; 15.4 µM in the assay with A549.

Consider `COc1cc2c(cc1OC)C(=O)/C(=C/c1ccc(OC)c(OC)c1OC)C2`, for which the GI50 (with HeLa [1]; in assay [2]; with MDA-MB-231; in [3]; with A549) was greater than 10 µM each time.

Take `COc1cc2c(cc1OC)C(=O)/C(=C/c1cc(OC)c(OC)c(OC)c1)C2`: the GI50 (in the assay on HeLa [1]; in [2]; in the assay on MDA-MB-231; in assay [3]; with A549) was greater than 10 µM throughout.

For `COc1ccc(/C=C2\Cc3c(cc(OC)c(OC)c3OC)C2=O)cc1O`, it took 7.56 µM to reach half-maximal inhibition against Tubulin (IC50). The result in the assay with HeLa [4], with HeLa [5] and in the assay on HeLa [22] was Active. Besides, in the assay on HeLa [6], the viability at 0.5 µM worked out at 40.6%. Also, the Activity was 19% in the assay with HeLa [7]; 0.82% with HeLa [8]; “Dose-dependent effect” in the assay with HeLa [9]; 0.38% in the assay on HeLa [10]; “Dose-dependent effect” in the assay with HeLa [12]; 35.2% in the assay on HeLa [14]. For the same compound, the Activity in the assay with HeLa [15] came out at 12.6%; in the assay with HeLa [16], 46.1%; in the assay with HeLa [17], 6.98%; in the assay with HeLa [18], 1.03%; in the assay on HeLa [19], 42.4%; in the assay with HeLa [20], 2.57%. In addition, the Activity in the assay on HeLa [21] is recorded as 4.4%; in the assay on HeLa [23] it was 23.2%. Moreover, in the assay with HeLa [11], the viability at 0.1 µM came to 77.4%. In the assay with HeLa [13], the viability at 0.05 µM amounted to 91.8%. Also, the GI50 in the assay on HeLa [1] was 0.172 µM; in assay [2] it was 0.307 µM; with MDA-MB-231, 0.57 µM; in assay [3], 0.213 µM; with A549 it was 0.249 µM.

For the compound `COc1ccc(/C=C2\Cc3cc(OC)c(OC)c(OC)c3C2=O)cc1O`, the GI50 (with HeLa [1]; in assay [2]; in the assay on MDA-MB-231; in [3]; in the assay on A549) was greater than 10 µM each time.

Turning to `COc1ccc(/C=C2\Cc3c(cc(OC)c(OC)c3OC)C2=O)cc1OC`, the GI50 in the assay on HeLa [1] is 8.56 µM; in [2] it was 10.5 µM; in the assay on MDA-MB-231 it was 9.85 µM; in [3], 7.47 µM; with A549, 9.74 µM.

With `COc1ccc(/C=C2\Cc3cc(OC)c(OC)c(OC)c3C2=O)cc1[N+](=O)[O-]`, the GI50 (in the assay with HeLa [1]; in assay [2]; with MDA-MB-231; in assay [3]; with A549) was greater than 10 µM in each case.

With `COc1ccc(/C=C2\Cc3c(cc(OC)c(OC)c3OC)C2=O)cc1F`, the IC50 against Tubulin turned out to be 8.92 µM. Besides, the GI50 stood at 0.258 µM in the assay on HeLa [1]; 0.491 µM in [2]; 0.521 µM in the assay with MDA-MB-231; 0.277 µM in assay [3]; 0.298 µM in the assay with A549.

For `COc1cc2c(c(OC)c1OC)C/C(=C\c1cc(OC)c(OC)c(OC)c1OC)C2=O`, the GI50 (in the assay with HeLa [1]; in assay [2]; in the assay with MDA-MB-231; in assay [3]; in the assay with A549) was greater than 10 µM throughout.

In the case of `COc1cc2c(cc1O)C(=O)/C(=C/c1cc(OC)c(OC)c(OC)c1)C2`, the concentration for 50% growth inhibition (GI50) (in the assay with HeLa [1]; in assay [2]; with MDA-MB-231; in assay [3]; in the assay on A549) was greater than 10 µM in each case.

`COc1ccc(/C=C2\Cc3cc(OC)c(OC)c(OC)c3C2=O)cc1`: the GI50 (with HeLa [1]; in [2]; in the assay with MDA-MB-231; in [3]; in the assay with A549) was greater than 10 µM each time.

As to `COc1cc(/C=C2\Cc3c(cc(OC)c(OC)c3OC)C2=O)cc(OC)c1OC`, the 50% growth inhibitory concentration (GI50) in the assay on HeLa [1] came to 2.37 µM; in [2] it was 1.58 µM; with MDA-MB-231, 5.84 µM; in [3], 4.99 µM; in the assay with A549 it was 2.79 µM.

Values taken from ChEMBL document CHEMBL3739423, “Synthesis, biological evaluation and mechanism study of a class of benzylideneindanone derivatives as novel anticancer agents” (Medchemcomm, 2015).
